# Laboratory results as given in paper PMC4894664 (Cancer cell, 2015).
# pIC50: −log10 of the molar value.
# Legend:
# A375 (BRAF V600E) cells = test: p-ERK in A375 cells; assay type: cell-based
# [1] = test system: A375 in which NRAS Q61K is expressed; test: p-ERK in A375 cells expressing NRAS Q61K; assay type: cell-based; settings: A375 with mutant NRAS overexpressed, 1 hr
# [2] = test system: SKBR3 breast cancer (HER2-activated wild type RAS); test: RAS activity and p-ERK in SKBR3 cells; assay type: cell-based
# [3] = test system: SK-MEL-2 melanoma (mutant NRAS Q61R); test: p-ERK in SK-MEL-2 cells; assay type: cell-based; settings: 1 hr
# [4] = test system: A549 lung cancer (mutant KRAS G12S); test: p-ERK in A549 cells; assay type: cell-based; settings: 1 hr
# SK-MEL-239 tumors = test: SK-MEL-239 subcutaneous xenograft; assay type: in vivo, nude mice; settings: for growth of SK-MEL-239 tumors: daily for 32 days, 75 mg/kg vemurafenib or 100 mg/kg BGB659; for ERK signaling in SK-MEL-239 tumors: tumor extracts, Western blot, 75 mg/kg vemurafenib or 100 mg/kg BGB659 daily
# [5] = test system: SK-MEL-239 C4 tumors (p61 V600E); test: SK-MEL-239 C4 subcutaneous xenograft; assay type: in vivo, nude mice; settings: for activity against SK-MEL-239 C4 tumors (growth): daily for 32 days, 75 mg/kg vemurafenib or 100 mg/kg BGB659
# [6] = Tolerability of daily dosing in mice; assay type: in vivo; settings: 100 mg/kg given daily
# [7] = test system: second site of the WT RAF dimer in SK-MEL-30 NRAS mutant cells; assay type: cell-based; settings: p-ERK; first site occupied by LGX818
# [8] = test system: BRAF V600E T529N or p61 BRAF V600E T529N; test: ERK signaling in cells expressing BRAF gatekeeper mutants; assay type: cell-based; settings: cells expressing BRAF V600E T529N or p61 BRAF V600E T529N (gatekeeper mutation)
# [9] = test system: RAF mutants that constitutively dimerize; test: ERK signaling in SKBR3 cells expressing RAF mutants that constitutively dimerize; assay type: cell-based; settings: SKBR3, 1 μM drug, 1 hr
# [10] = test system: SK-MEL-239 parental cells (BRAF V600E); test: p-ERK inhibition in SK-MEL-239 parental cells; assay type: cell-based; settings: read-out: concentration inhibiting monomer driven signaling (p-ERK IC50)
# [11] = test system: SK-MEL-239 C4 clone (which expresses p61 BRAF V600E); test: p-ERK inhibition in SK-MEL-239 C4 clone; assay type: cell-based; settings: read-out: concentration inhibiting dimer signaling (p-ERK IC50)
# [12] = test system: SK-MEL-30 (NRAS Q61K) cells; test: p-ERK in SK-MEL-30 cells, with and without drug washout; assay type: cell-based
# BRAF V600E tumor cells = test: ERK phosphorylation after drug washout in BRAF V600E tumor cells; assay type: cell-based; settings: 1 hr exposure then washout
# p61 BRAF V600E = p61 BRAF V600E (Homo sapiens, UniProt P15056, DEL169-380/V600E); test: ERK signaling; assay type: cell-based; settings: SKBR3, drug 1 hr
# BRAF/CRAF heterodimers = BRAF/CRAF heterodimers (Homo sapiens, UniProt P04049+P15056); test: Induction of BRAF/CRAF heterodimers; assay type: cell-based; settings: HeLa and two melanoma cell lines with mutant NRAS, 1 hr
# [13] = test system: JVM-3, a BRAF K601N CLL cell line; test: ERK signaling and proliferation of JVM-3; assay type: cell-based
# [14] = SK-MEL-30 (mutant NRAS, WT RAF)
# [15] = SK-MEL-30, 3 μM for 1 hr then washout
smiles,measurement,setting,value
CC(C)(N)c1cc(C(=O)N[C@@H]2CCc3ccc(Oc4ccnc5c4CCC(=O)N5)cc3C2)cc(C(F)(F)F)c1 [BGB659],inhibition of ERK signaling at 1 μM,"A375 (BRAF V600E) cells; A375, 1 μM, 1 hr",almost complete inhibition
same,pIC50,"A375 (BRAF V600E) cells; read-out: IC50 for inhibition of ERK signaling, A375, 1 hr",6.52 to 7.00
same,inhibition of ERK signaling at 1 μM,[1],almost complete inhibition
same,decline of ERK phosphorylation,"[2]; SKBR3, 1 μM, 1 hr",40%
same,ERK phosphorylation at 10 μM,"[2]; SKBR3, 10 μM, 1 hr",approached complete inhibition
same,decline of ERK phosphorylation,"[3]; SK-MEL-2, 1 μM",40%
same,ERK phosphorylation at 10 μM,"[3]; SK-MEL-2, 10 μM",approached complete inhibition
same,ERK phosphorylation at 1 μM,"[4]; A549, 1 μM",declined to pretreatment levels
same,ERK phosphorylation at 10 μM,"[4]; A549, 10 μM",some residual activity remained
same,growth of SK-MEL-239 tumors,SK-MEL-239 tumors,effectively inhibited
same,ERK signaling in SK-MEL-239 tumors,SK-MEL-239 tumors,potently inhibited
same,activity against SK-MEL-239 C4 tumors (growth),[5],had activity
same,ERK signaling in SK-MEL-239 C4 tumors,"[5]; tumor extracts, Western blot, 75 mg/kg vemurafenib or 100 mg/kg BGB659 daily",only BGB659 inhibited
same,weight loss or other toxicity,[6],unassociated with weight loss or other obvious toxicity
same,potency for inhibition of monomers and the second site of dimers,[7],100 to 300 nM
same,ERK signaling resistant to the drug,[8],resistant
same,sensitivity of ERK signaling driven by RAF mutants that constitutively dimerize,[9],sensitive
COC(=O)N[C@@H](C)CNc1nccc(-c2cn(C(C)C)nc2-c2cc(Cl)cc(NS(C)(=O)=O)c2F)n1 [LGX818],pIC50,[10],7.85
same,pIC50,[11],6.54
same,concentration of peak induction of ERK,[12]; [14],100 nM
same,concentrations causing concentration-dependent inhibition of ERK signaling,[12]; [14],300 to 3000 nM
same,half-time of p-ERK rise after drug washout,[12]; [15],10 min
same,p-ERK 24 hr after washout relative to basal,[12]; [15],three fold elevated compared to basal
same,maximum p-ERK after drug washout relative to basal,"[12]; SK-MEL-30, 3 μM for 1 hr then washout, maximum approximately 1 hr after washout",about five times higher than basal
same,p-ERK after drug washout,"A375 (BRAF V600E) cells; A375, 3 μM for 1 hr then washout",remained inhibited in A375 for up to 24 hr
same,ERK phosphorylation 1 hr after washout of the drug,BRAF V600E tumor cells,remains inhibited
CC(C)(C)c1nc(-c2cccc(NS(=O)(=O)c3c(F)cccc3F)c2F)c(-c2ccnc(N)n2)s1 [dabrafenib],fold higher concentrations required to inhibit ERK driven by p61 V600E dimers than by p61 V600E R509H monomers,p61 BRAF V600E,same relative difference
same,induction of BRAF/CRAF heterodimers,BRAF/CRAF heterodimers,equivalent and much greater than that caused by vemurafenib
CS(=O)(=O)CCNCc1ccc(-c2ccc3ncnc(Nc4ccc(OCc5cccc(F)c5)c(Cl)c4)c3c2)o1 [lapatinib],RAS activity and ERK signaling,"[2]; SKBR3, 1 hr exposure",potently suppressed
CCCS(=O)(=O)Nc1ccc(F)c(C(=O)c2c[nH]c3ncc(-c4ccc(Cl)cc4)cc23)c1F [vemurafenib],effect on ERK signaling,[12]; [14],activates ERK signaling
same,growth of SK-MEL-239 tumors,SK-MEL-239 tumors,effectively inhibited
same,ERK signaling in SK-MEL-239 tumors,SK-MEL-239 tumors,potently inhibited
same,activity against SK-MEL-239 C4 tumors (growth),[5],only the latter had activity
same,effect on ERK signaling and proliferation of JVM-3,[13],resistant
same,ERK signaling resistant to the drug,[8],resistant
same,ERK phosphorylation 1 hr after washout of the drug,BRAF V600E tumor cells,returned to pre-exposure levels
same,sensitivity of ERK signaling driven by RAF mutants that constitutively dimerize,[9],resistant
